# From US10597388B2, “Pyridazinone herbicides” (FMC CORPORATION, priority 2014, dated 2020)
# Legend:
# Assay in all cases: Test E greenhouse herbicide test, pre- and postemergence
# Assay type in all cases: in vivo
# [1] = system: Italian ryegrass (Lolium multiflorum)
# Summary of the method: (§1)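 Compounds in a non-phytotoxic solvent mixture with surfactant were applied preemergence to seeds in silt loam soil and postemergence to 2-18 cm plants (1- to 4-leaf stage) in peat-based medium. After 14 to 21 d in a greenhouse, injury was rated visually against untreated controls on a 0 (no effect) to 100 (complete control) scale.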
# [2] = system: foxtail, green (green foxtail, Setaria viridis); conditions: Preemergence
# Summary of the method: as §1
# [3] = system: pigweed, palmer (palmer pigweed, Amaranthus palmeri)
# Summary of the method: as §1
# [4] = system: beggarticks (hairy beggarticks, Bidens pilosa)
# Summary of the method: as §1
# [5] = system: panicum, fall (fall panicum, Panicum dichotomiflorum)
# Summary of the method: as §1
# [6] = system: crabgrass, Brazilian (Brazilian crabgrass, Digitaria horizontalis)
# Summary of the method: as §1
# [7] = system: ragweed (common ragweed, Ambrosia elatior); conditions: Preemergence
# Summary of the method: as §1
# [8] = system: barnyardgrass (Echinochloa crus-galli)
# Summary of the method: as §1
# [9] = system: velvetleaf (Abutilon theophrasti); conditions: Preemergence
# Summary of the method: as §1
# [10] = system: field bindweed (Convolvulus arvensis)
# Summary of the method: as §1
# [11] = system: crabgrass, large (large crabgrass, Digitaria sanguinalis); conditions: Preemergence
# Summary of the method: as §1
# kochia (Kochia scoparia) = conditions: Preemergence
# Summary of the method: as §1
# [12] = system: nutsedge, yellow (yellow nutsedge, Cyperus esculentus); conditions: Preemergence
# Summary of the method: as §1
# corn (Zea mays) = system: corn (Zea mays)
# Summary of the method: as §1
# [13] = system: momingglory (Ipomoea coccinea); conditions: Preemergence
# Summary of the method: as §1
# [14] = system: foxtail, giant (giant foxtail, Setaria faberii); conditions: Preemergence
# Summary of the method: as §1
# [15] = 62 g ai/ha, Postemergence, scale 0 to 100 (0 no effect, 100 complete control)
# [16] = 62 g ai/ha, Preemergence, scale 0 to 100 (0 no effect, 100 complete control)
# [17] = 125 g ai/ha, Postemergence, scale 0 to 100 (0 no effect, 100 complete control)
# [18] = 125 g ai/ha, Preemergence, scale 0 to 100 (0 no effect, 100 complete control)
# [19] = 250 g ai/ha, Postemergence, scale 0 to 100 (0 no effect, 100 complete control)
# [20] = Postemergence, 16 g ai/ha, visual, scale 0 no effect to 100 complete control
# [21] = Postemergence, 31 g ai/ha, visual, scale 0 no effect to 100 complete control
# [22] = Preemergence, 16 g ai/ha, scale 0 to 100, 0 no effect, 100 complete control
# [23] = Preemergence, 31 g ai/ha, scale 0 to 100, 0 no effect, 100 complete control
# [24] = Preemergence, 250 g ai/ha, visual, scale 0 no effect to 100 complete control
# [25] = 62 g ai/ha, scale 0 to 100 (0 no effect, 100 complete control)
# [26] = 16 g ai/ha, scale 0 to 100, 0 no effect, 100 complete control
# [27] = 31 g ai/ha, scale 0 to 100, 0 no effect, 100 complete control
# [28] = 125 g ai/ha, visual, scale 0 no effect to 100 complete control
# [29] = 250 g ai/ha, visual, scale 0 no effect to 100 complete control
# [30] = Preemergence, 125 g ai/ha, visual, scale 0 no effect to 100 complete control
# [31] = 125 g ai/ha, scale 0 to 100 (0 no effect, 100 complete control)
smiles,measurement,setting,value
"Cc1ccc2sc(C)c(-c3c(O)c(C)nn(C)c3=O)c2c1 [Compound 1, 4-(2,5-dimethylbenzo[b]thien-3-yl)-5-hydroxy-2,6-dimethyl-3(2H)-pyridazinone]","Plant response rating, Ryegrass, Italian",[1]; [15],50
same,"Plant response rating, Ryegrass, Italian",[1]; [16],100
same,"Plant response rating, Ryegrass, Italian",[1]; [17],65
same,"Plant response rating, Ryegrass, Italian",[1]; [18],100
same,"Plant response rating, Ryegrass, Italian",[1]; [19],90
same,"Plant response rating, Ryegrass, Italian",[1]; [20],20
same,"Plant response rating, Ryegrass, Italian",[1]; [21],35
same,"Plant response rating, Ryegrass, Italian",[1]; [22],70
same,"Plant response rating, Ryegrass, Italian",[1]; [23],95
same,"Plant response rating, Ryegrass, Italian",[1]; [24],100
same,"Plant response rating, Foxtail, Green",[2]; [25],70
same,"Plant response rating, Foxtail, Green",[2]; [26],0
same,"Plant response rating, Foxtail, Green",[2]; [27],15
same,"Plant response rating, Foxtail, Green",[2]; [28],90
same,"Plant response rating, Foxtail, Green",[2]; [29],90
same,"Plant response rating, Pigweed, Palmer",[3]; [15],90
same,"Plant response rating, Pigweed, Palmer",[3]; [16],100
same,"Plant response rating, Pigweed, Palmer",[3]; [17],75
same,"Plant response rating, Pigweed, Palmer",[3]; [18],100
same,"Plant response rating, Pigweed, Palmer",[3]; [19],98
same,"Plant response rating, Pigweed, Palmer",[3]; [20],70
same,"Plant response rating, Pigweed, Palmer",[3]; [21],20
same,"Plant response rating, Pigweed, Palmer",[3]; [22],20
same,"Plant response rating, Pigweed, Palmer",[3]; [23],90
same,"Plant response rating, Pigweed, Palmer",[3]; [24],100
same,"Plant response rating, Beggarticks",[4]; [15],98
same,"Plant response rating, Beggarticks",[4]; [16],100
same,"Plant response rating, Beggarticks",[4]; [17],100
same,"Plant response rating, Beggarticks",[4]; [19],100
same,"Plant response rating, Beggarticks",[4]; [20],70
same,"Plant response rating, Beggarticks",[4]; [21],85
same,"Plant response rating, Beggarticks",[4]; [22],100
same,"Plant response rating, Beggarticks",[4]; [23],100
same,"Plant response rating, Beggarticks",[4]; [30],100
same,"Plant response rating, Beggarticks",[4]; [24],100
same,"Plant response rating, Panicum, Fall",[5]; [15],75
same,"Plant response rating, Panicum, Fall",[5]; [16],90
same,"Plant response rating, Panicum, Fall",[5]; [17],80
same,"Plant response rating, Panicum, Fall",[5]; [18],95
same,"Plant response rating, Panicum, Fall",[5]; [19],85
same,"Plant response rating, Panicum, Fall",[5]; [20],70
same,"Plant response rating, Panicum, Fall",[5]; [21],75
same,"Plant response rating, Panicum, Fall",[5]; [22],65
same,"Plant response rating, Panicum, Fall",[5]; [23],75
same,"Plant response rating, Panicum, Fall",[5]; [24],100
same,"Plant response rating, Crabgrass, Brazil",[6]; [15],15
same,"Plant response rating, Crabgrass, Brazil",[6]; [16],80
same,"Plant response rating, Crabgrass, Brazil",[6]; [17],20
same,"Plant response rating, Crabgrass, Brazil",[6]; [19],35
same,"Plant response rating, Crabgrass, Brazil",[6]; [20],0
same,"Plant response rating, Crabgrass, Brazil",[6]; [21],15
same,"Plant response rating, Crabgrass, Brazil",[6]; [22],0
same,"Plant response rating, Crabgrass, Brazil",[6]; [23],10
same,"Plant response rating, Crabgrass, Brazil",[6]; [30],100
same,"Plant response rating, Crabgrass, Brazil",[6]; [24],100
same,"Plant response rating, Ragweed",[7]; [25],75
same,"Plant response rating, Ragweed",[7]; [31],100
same,"Plant response rating, Ragweed",[7]; [26],35
same,"Plant response rating, Ragweed",[7]; [27],70
same,"Plant response rating, Ragweed",[7]; [29],100
same,"Plant response rating, Barnyardgrass",[8]; [15],20
same,"Plant response rating, Barnyardgrass",[8]; [16],0
same,"Plant response rating, Barnyardgrass",[8]; [17],25
same,"Plant response rating, Barnyardgrass",[8]; [19],35
same,"Plant response rating, Barnyardgrass",[8]; [20],10
same,"Plant response rating, Barnyardgrass",[8]; [21],15
same,"Plant response rating, Barnyardgrass",[8]; [22],0
same,"Plant response rating, Barnyardgrass",[8]; [23],0
same,"Plant response rating, Barnyardgrass",[8]; [30],0
same,"Plant response rating, Barnyardgrass",[8]; [24],20
same,"Plant response rating, Velvetleaf",[9]; [25],75
same,"Plant response rating, Velvetleaf",[9]; [31],90
same,"Plant response rating, Velvetleaf",[9]; [26],35
same,"Plant response rating, Velvetleaf",[9]; [27],75
same,"Plant response rating, Velvetleaf",[9]; [29],98
same,"Plant response rating, Field Bindweed",[10]; [15],70
same,"Plant response rating, Field Bindweed",[10]; [16],80
same,"Plant response rating, Field Bindweed",[10]; [17],85
same,"Plant response rating, Field Bindweed",[10]; [19],95
same,"Plant response rating, Field Bindweed",[10]; [20],65
same,"Plant response rating, Field Bindweed",[10]; [21],65
same,"Plant response rating, Field Bindweed",[10]; [22],5
same,"Plant response rating, Field Bindweed",[10]; [23],20
same,"Plant response rating, Field Bindweed",[10]; [30],95
same,"Plant response rating, Field Bindweed",[10]; [24],100
same,"Plant response rating, Crabgrass, Large",[11]; [25],20
same,"Plant response rating, Crabgrass, Large",[11]; [26],0
same,"Plant response rating, Crabgrass, Large",[11]; [27],0
same,"Plant response rating, Crabgrass, Large",[11]; [28],35
same,"Plant response rating, Crabgrass, Large",[11]; [29],65
same,"Plant response rating, Kochia",kochia (Kochia scoparia); [25],5
same,"Plant response rating, Kochia",kochia (Kochia scoparia); [26],0
same,"Plant response rating, Kochia",kochia (Kochia scoparia); [27],0
same,"Plant response rating, Kochia",kochia (Kochia scoparia); [28],35
same,"Plant response rating, Kochia",kochia (Kochia scoparia); [29],85
same,"Plant response rating, Nutsedge, Yellow",[12]; [25],15
same,"Plant response rating, Nutsedge, Yellow",[12]; [31],50
same,"Plant response rating, Nutsedge, Yellow",[12]; [26],0
same,"Plant response rating, Nutsedge, Yellow",[12]; [27],10
same,"Plant response rating, Nutsedge, Yellow",[12]; [29],70
same,"Plant response rating, Corn",corn (Zea mays); [15],5
same,"Plant response rating, Corn",corn (Zea mays); [16],0
same,"Plant response rating, Corn",corn (Zea mays); [17],5
same,"Plant response rating, Corn",corn (Zea mays); [19],5
same,"Plant response rating, Corn",corn (Zea mays); [20],0
same,"Plant response rating, Corn",corn (Zea mays); [21],5
same,"Plant response rating, Corn",corn (Zea mays); [22],0
same,"Plant response rating, Corn",corn (Zea mays); [23],0
same,"Plant response rating, Corn",corn (Zea mays); [30],0
same,"Plant response rating, Corn",corn (Zea mays); [24],0
same,"Plant response rating, Morningglory",[13]; [25],98
same,"Plant response rating, Morningglory",[13]; [31],90
same,"Plant response rating, Morningglory",[13]; [26],20
same,"Plant response rating, Morningglory",[13]; [27],60
same,"Plant response rating, Morningglory",[13]; [29],100
same,"Plant response rating, Foxtail, Giant",[14]; [25],35
same,"Plant response rating, Foxtail, Giant",[14]; [26],0
same,"Plant response rating, Foxtail, Giant",[14]; [27],50
same,"Plant response rating, Foxtail, Giant",[14]; [28],95
same,"Plant response rating, Foxtail, Giant",[14]; [29],98
